Two molecules from patent publication US11987604B2, “Fusion-proteins based on human ferritin and protease-cleavable peptides and their use as chemotherapeutics carriers” (THENA BIOTECH S.R.L., priority 2017, dated 2024) can be followed below.

Format in all cases: cell-based
One test concerns SW480 colon cancer cells. In words: Cell internalization and localization by confocal microscopy, SW480. The note with it: SW480, 3 h incubation at 37° C., 20 μM MIT. How it is done: (§1) Left panels: Lamin A/C staining (nuclear membrane marker, green); central panels: MIT (blue); right panels: merge. The white bar indicates a 10 μm length.
(§2) MIT concentration is 20 μM in all experiments. The white bar indicates a 20 μm length.
(§3) To determine whether MIT containing HFt based constructs undergo cell surface binding and/or internalization, they were incubated with colon cancer cells SW480 and SW620 at 37° C. for 1 or 3 h and MIT associated fluorescence was visualized by confocal microscopy. […] In particular, MIT localizes in intranuclear structures assumed to be nucleoli on the basis of size, position and shape, as previously proposed for colon carcinoma and breast cancer cells.

The test system of the next test is SW620 colon cancer cells. The test is described as follows: Cell internalization and localization by confocal microscopy, SW620. The note with it: SW620, 3 h incubation at 37° C., 20 μM MIT. As to the method: as §1, §2, §3
The test system of test [1] is pancreatic MiaPaCa2 cancer cells. The test is described as follows: XTT viability assay, MiaPaCa2. The note with it: Homo sapiens, MIA PaCa-2, read-out: killing efficacy (IC50).
Test [2] deals with pancreatic Capan 1 cancer cells. In words: XTT viability assay, Capan 1. The note with it: Homo sapiens, Capan 1 cells, read-out: killing efficacy (IC50).
The subject of test [3] is pancreatic PaCa 44 cancer cells. In words: XTT viability assay, PaCa 44. The following applies: Homo sapiens, Paca44 cells, read-out: killing efficacy (IC50).

Consider `O=C1c2c(O)ccc(O)c2C(=O)c2c(NCCNCCO)ccc(NCCNCCO)c21` [MIT, mitoxantrone], for which the “MIT localization in cells” value in the test on SW480 colon cancer cells and in the test with SW620 colon cancer cells was “partly present also in the cytoplasm” in each case.

For the molecule `Nc1ccn([C@@H]2O[C@H](CO)[C@@H](O)C2(F)F)c(=O)n1` [Gemcitabine], the values for the IC50 in test [1], in test [2] and in test [3] were 1150 nM, 2800 nM and 6750 nM, respectively.
